The conditions of data set [1]: ref Cummings et al., 1994; cited from earlier work. From the text:
(§1) British Journal of Cancer (1996) 73, 715-720 ? 1996 Stockton Press All rights reserved 0007-0920/96 $12.00 % Metabolism of the broad-spectrum neuropeptide growth factor antagonist: ID-Arg1, D-Phe5, D-Trp7'9, Leull"-substance P DA Jones', J Cummings', SP Langdon', AJ Maclellan', T Higgins2, E Rozengurt2 and JF Smyth' 'Imperial Cancer Research Fund, Medical Oncology Unit, Western General Hospital, Edinburgh EH4 2XU; 2Imperial Cancer Research Fund, PO Box 123, Lincoln's Inn Fields, London WC2A 3PX, UK. Summary Broad-spectrum neuropeptide growth factor antagonists, such as [D-Arg', D-Phe5, D-Trp7' ...

A short description of data set [2]: Stability of antagonist D and antagonist G in 1% (w/v) mouse liver homogenate. The class given is in vitro ADME. The settings on record: for amount of antagonist remaining after 1 h of incubation: 50 nmol in 1.0 ml 1% w/v mouse liver homogenate in PBS pH 7.4, 37°C, HPLC with fluorescence detection, corrected for extraction efficiency (94.4% D, 94% G), three experiments; for amount of metabolite accumulated after 1 h: from 50 nmol parent antagonist in 1% mouse liver homogenate, PBS pH 7.4, 37°C, HPLC fluorescence, extraction efficiency 94.4% (D metabolites), 94% (G metabolites) assumed, mean of three experiments. From the text:
British Journal of Cancer (1996) 73, 715-720 ? 1996 Stockton Press All rights reserved 0007-0920/96 $12.00 % Metabolism of the broad-spectrum neuropeptide growth factor antagonist: ID-Arg1, D-Phe5, D-Trp7'9, Leull"-substance P DA Jones', J Cummings', SP Langdon', AJ Maclellan', T Higgins2, E Rozengurt2 and JF Smyth' 'Imperial Cancer Research Fund, Medical Oncology Unit, Western General Hospital, Edinburgh EH4 2XU; 2Imperial Cancer Research Fund, PO Box 123, Lincoln's Inn Fields, London WC2A 3PX, UK. Summary Broad-spectrum neuropeptide growth factor antagonists, such as [D-Arg', D-Phe5, D-Trp7'9, Leu']substance P (antagonist D) and [Arg6, D-Trp7'9, NmePhe8]substance p(6- 11) (antagonist G), are currently being investigated as possible anti-tumour agents. […] Keywords: broad spectrum; neuropeptide; antagonist; metabolism Successful, long-term treatment of small-cell lung cancer (SCLC) remains a major therapeutic problem. […] The disease is characterised by its ability to secrete and to be growth stimulated by a variety of neuropeptide growth factors that include bombesin/gastrin- releasing peptide (GRP), vasopressin, bradykinin, cholecys- tokinin and neurotensin (Woll and Rozengut, 1989). […] These agents include [D- Arg'-D-Phe5-D-Trp7'9-Leu' 1]-substance P and [Arg6-D-Trp7'9- NmePhe8]-substance P(6-11) (code named antagonists D and G respectively) (Sethi et al., 1992). […] In the near future antagonist G will be the first of this new class of compound, broad- spectrum neuropeptide growth factor antagonists, to enter a phase I clinical trial for the potential treatment of SCLC. […] The research reported here describes the characterisation of the in vitro metabolism of antagonist D, comparing its metabolic stability to that of antagonist G, which we have previously reported (Jones et al., 1995). […] Materials and methods Antagonist D was purchased from Peninsula Laboratories (St Helens, UK), Antagonist G was supplied by Peptech (Europe) (Copenhagen, Denmark). H-D-Arg-Pro-Lys-Pro-D- Phe-Gln-D-Trp-Phe-D-Trp-Leu-Leu-OH (metabolite 1) and H-D-Arg-Pro-Lys-Pro-D-Phe-Gln-D-Trp-Phe-D-Trp-Leu-OH (metabolite 2) were prepared in-house using conventional Fmoc solid-phase peptide synthesis procediures. Reagents for peptide synthesis were purchased from NovaBiochem (UK) (Nottingham, UK). Acetic acid and ammonium acetate were from BDH Chemicals (Poole, UK). Methanol and acetoni- trile were high-performance liquid chromatography (HPLC) grade from Rathburn Chemicals (Walkerburn, UK). Tri- fluoroacetic acid was from Sigma Chemical (Poole, UK). All other chemicals Were of the highest grade commercially available and used without further purification. Water was deionised and bidistilled in a quartz glass still. HPLC The HPLC system used consisted of two 510 HPLC pumps, a 712 WISP autosampler, a TCM column heater (all Waters, Northwich, UK) and a model 1046A fluorescence detector (Hewlett Packard, Walborn, Germany). A Waters MAXIMA 820 computer package was used with a Waters system interface module to control the system operation and collect and integrate data. Separation was achieved on a Prime- sphere 5 gm (250 x 4.6 mm) column (Phenomenex, Maccles- field, UK) using isocratic elution with 45% (v/v) acetonitrile in 0.1% (v/v) aqueous triflouroacetic acid (TFA) at 450C. Detection of the peptides was by fluorescence (Excitation 233 nm Emission 395 nm).

For data set [3], the system named is SCLC and non-SCLC cell lines. As to conditions: SCLC and non-SCLC cell lines in vitro; ref Reeve and Bleehan, 1994; cited from earlier work.
Text: as §1

The next data set deals with SCLC cells. As to conditions: ref Woll and Rozengurt, 1988; cited from earlier work.
Text: as §1

Data set [4] deals with non-SCLC, ovarian and cervical cancer cell lines. The settings on record: ref Everard et al., 1992; cited from earlier work.
Text: as §1

Data set [5] has as its system SCLC xenografts (HC12 and ICR-SC112). The settings on record: ref Everard et al., 1993; cited from earlier work.
Text: as §1

The subject of data set [6] is SCLC xenografts (WX322 and H69). As to conditions: WX322 and H69 xenografts in nude mice; ref Langdon et al., 1992; cited from earlier work.
Text: as §1

For data set [7], the system named is Swiss 3T3 cells stimulated by vasopressin. The experiment in a line: [3H]thymidine uptake by Swiss 3T3 cells after mitogenic stimulation by vasopressin. Type of data set: cell-based, murine. As to conditions: vasopressin 1 nM, 40 h, mean of duplicate samples.
In data set [8] the test system is Swiss 3T3 cells stimulated by bombesin. Kind of data set: [3H]thymidine uptake by Swiss 3T3 cells after mitogenic stimulation by bombesin. Type of data set: cell-based, murine. The settings on record: bombesin 1 nM, insulin 1 µg/ml, 40 h, mean of duplicate samples.
Data set [9] has as its system Swiss 3T3 cells stimulated by bradykinin. The experiment in a line: [3H]thymidine uptake by Swiss 3T3 cells after mitogenic stimulation by bradykinin. The class given is cell-based, murine. As to conditions: bradykinin 1 nM, insulin 1 µg/ml, 40 h, mean of duplicate samples.
Data set [10] can be described thus: 1% (w/v) mouse liver homogenate in PBS (pH 7.4). As to conditions: 37?C, up to 1 h.
Data set [11] can be described thus: 2% w/v mouse liver homogenate in PBS (pH 7.4). As to conditions: 37?C, up to 2 h.
A short description of a further data set: human plasma. The settings on record: cited from earlier work.

Entries after “also recorded” stand apart in the source; their conditions may differ. Residues, ends and D or L forms follow the SMILES beside them. Bounds are passed on as bounds.

The values below come from publication PMC2074379 (British Journal of Cancer, 1996).

For orientation: IC50 means the midpoint of a concentration-inhibition curve.

For `CC(C)C[C@H](NC(=O)[C@H](CC(C)C)NC(=O)[C@@H](Cc1c[nH]c2ccccc12)NC(=O)[C@H](Cc1ccccc1)NC(=O)[C@@H](Cc1c[nH]c2ccccc12)NC(=O)[C@H](CCC(N)=O)NC(=O)[C@@H](Cc1ccccc1)NC(=O)[C@@H]1CCCN1C(=O)[C@H](CCCCN)NC(=O)[C@@H]1CCCN1C(=O)[C@H](N)CCCN=C(N)N)C(N)=O` [antagonist D, [D-Arg1, D-Phe5, D-Trp7,9, Leu11]substance P] (HELM PEPTIDE1{[dR].P.K.P.[dF].Q.[dW].F.[dW].L.L.[am]}$$$$V2.0), the “stability in human plasma” value in data set [1] is given as “stable”. Moreover, the “amount of antagonist remaining after 1 h of incubation” value in data set [2] was determined as 30.8 nmol. Besides, the “stability relative to antagonist G” value in data set [2] (1% mouse liver homogenate, 37°C (Figure 2)) is reported as “almost twice as stable as antagonist G”. Also, in [2] (over the first 30 min, 1% mouse liver homogenate, 37°C), the “rate of disappearance relative to antagonist G” value is on record as “half the rate of antagonist G”.

For the compound `CC(C)C[C@H](NC(=O)[C@H](CC(C)C)NC(=O)[C@@H](Cc1c[nH]c2ccccc12)NC(=O)[C@H](Cc1ccccc1)NC(=O)[C@@H](Cc1c[nH]c2ccccc12)NC(=O)[C@H](CCC(N)=O)NC(=O)[C@@H](Cc1ccccc1)NC(=O)[C@@H]1CCCN1C(=O)[C@H](CCCCN)NC(=O)[C@@H]1CCCN1C(=O)[C@H](N)CCCNC(=N)N)C(N)=O` [antagonist D, [D-Arg1, D-Phe5, D-Trp7,9, Leu11]substance P] (HELM PEPTIDE1{[dR].P.K.P.[dF].Q.[dW].F.[dW].L.L.[am]}$$$$V2.0), in data set [3], the induction of apoptosis entry was “induce apoptosis”. Moreover, the “potency against SCLC cells in vitro relative to antagonist G” value in the data set with SCLC cells is “equipotent to antagonist G”. The “in vitro activity against cancer cell lines” value in data set [4] is listed as “activity”. Besides, the “activity against other SCLC xenografts in vivo” value in data set [5] is on record as “activity”. Further, the “growth of SCLC xenografts” value in data set [6] was “inhibit the growth”. The half-maximal inhibitory concentration (IC50) in data set [7] ([3H]thymidine uptake, read-out: IC50 value, vasopressin stimulated growth) is below 1 µM.

For the compound `CSCC[C@H](NC(=O)[C@H](CC(C)C)NC(=O)[C@@H](Cc1c[nH]c2ccccc12)NC(=O)[C@H](Cc1ccccc1)N(C)C(=O)[C@@H](Cc1c[nH]c2ccccc12)NC(=O)[C@@H](N)CCCNC(=N)N)C(N)=O` [antagonist G, [Arg6, D-Trp7,9, NmePhe8]substance P(6-11)] (HELM PEPTIDE1{R.[dW].[meF].[dW].L.M.[am]}$$$$V2.0), the “growth of SCLC xenografts” value in data set [6] is “inhibit the growth”. Further, the “amount of antagonist remaining after 1 h of incubation” value in data set [2] is 21.1 nmol.

In the case of `CC(C)C[C@H](NC(=O)[C@H](CC(C)C)NC(=O)[C@@H](Cc1c[nH]c2ccccc12)NC(=O)[C@H](Cc1ccccc1)NC(=O)[C@@H](Cc1c[nH]c2ccccc12)NC(=O)[C@H](CCC(N)=O)NC(=O)[C@@H](Cc1ccccc1)NC(=O)[C@@H]1CCCN1C(=O)[C@H](CCCCN)NC(=O)[C@@H]1CCCN1C(=O)[C@H](N)CCCNC(=N)N)C(=O)O` [metabolite 1, H-D-Arg-Pro-Lys-Pro-D-Phe-Gln-D-Trp-Phe-D-Trp-Leu-Leu-OH] (HELM PEPTIDE1{[dR].P.K.P.[dF].Q.[dW].F.[dW].L.L}$$$$V2.0), the “vasopressin antagonist activity (inhibition of [3H]thymidine uptake)” value in data set [7] (insulin 1 µg/ml) is “inactive”. Besides, the “antagonist activity with respect to bombesin (inhibition of [3H]thymidine uptake)” value in data set [8] was “retained none of the antagonist properties”. Moreover, the “amount of metabolite accumulated after 1 h” value in data set [2] stood at 9.6 nmol. In data set [9], the “antagonist activity with respect to bradykinin (inhibition of [3H]thymidine uptake)” value was “retained none of the antagonist properties”.

On to `CC(C)C[C@H](NC(=O)[C@@H](Cc1c[nH]c2ccccc12)NC(=O)[C@H](Cc1ccccc1)NC(=O)[C@@H](Cc1c[nH]c2ccccc12)NC(=O)[C@H](CCC(N)=O)NC(=O)[C@@H](Cc1ccccc1)NC(=O)[C@@H]1CCCN1C(=O)[C@H](CCCCN)NC(=O)[C@@H]1CCCN1C(=O)[C@H](N)CCCNC(=N)N)C(=O)O` [metabolite 2, H-D-Arg-Pro-Lys-Pro-D-Phe-Gln-D-Trp-Phe-D-Trp-Leu-OH] (HELM PEPTIDE1{[dR].P.K.P.[dF].Q.[dW].F.[dW].L}$$$$V2.0), for which, in data set [8], the “antagonist activity with respect to bombesin (inhibition of [3H]thymidine uptake)” value is “retained none of the antagonist properties”. For the same compound, in data set [2], the “amount of metabolite accumulated after 1 h” value is 12.3 nmol. The “antagonist activity with respect to bradykinin (inhibition of [3H]thymidine uptake)” value in data set [9] is on record as “retained none of the antagonist properties”.

Turning to H-Arg-D-Trp-N"'Phe-D-Trp-Leu-Met-NH,, the cleaved bond result in [10] was “Met-NH2, major”.

Turning to “H-D-Arg-Pro-Lys-Pro-D-Phe-GIn-D-Trp-Phe-D-Trp-Leu-Leu-NH2”, the cleaved bond entry in data set [10] was “Leu11-NH2, major; also recorded: Leu10-Leu11, major”; in data set [11] it was “Leu11-NH2, major; also recorded: Leu10-Leu11, major”. In the data set “human plasma”, the not cleaved result is recorded as “stable in human plasma”.
